The values below come from paper PMC9879403, “Oncolytic strategy using new bifunctional HDACs/BRD4 inhibitors against virus-associated lymphomas” (PLOS Pathogens, 2023).

Series [1] has as its system KSHV. Type of series: cell-based.
For series [2], the system named is KSHV. Nature of the series: Viral DNA levels in PEL cells by qPCR. Type of series: cell-based.
For series [3], the system named is HDACs. Nature of the series: HDACs signaling by Western blot (H3K9Ac, H4K9Ac, Acetyl-tubulin). Type of series: cell-based.
Series [4] deals with BCBL-1 cells. Nature of the series: PEL xenograft model (BCBL-1 cells i.p.). How it is done:
(A) Plasma concentrations of (+)-JQ1, SAHA, or 009P1 after a single administration of 50 mg per kg body (i.p. injection) were presented as mean ± SD (n = 3 mice per time point). (B-E) NOD/SCID mice were injected i.p. with BCBL-1 cells. 72 h later, the compounds or vehicle were administered i.p. as described in the Methods, and weights were recorded weekly. At the end of the treatment period, the splenic tissues were collected from the vehicle or compound treated mice, compared and processed with the H&E and IHC staining. (F) Plasma concentrations of 009P1 after a single administration of 50 mg per kg body (oral gavage) were presented as mean ± SD (n = 3 mice per time point). (G-I) NOD/SCID mice were injected i.p. with BCBL-1 cells. 72 h later, the compounds or vehicle were administered orally as described in the Methods, and weights were recorded weekly.
In all NOD/SCID mice, 6–8-week-old, male (Jackson Laboratory, Ellsworth, Maine, USA), 1 × 10^7 BCBL-1 cells in 200 μL RMPI-1640 without FBS were injected intraperitoneally and then mice were randomized into treatment groups of 6 mice as described previously. The tested compounds or vehicle was administered initially at 72 h after BCBL-1 injections, and continued once daily, 2 days per week for 3 weeks. Weights were recorded weekly as a surrogate measure of tumor progression. At the end of experiment, the spleens of mice were excised for immunoblots and immunohistochemical analyses.
Formalin-fixed, paraffin-embedded tissues were microtome-sectioned to a thickness of 4 μm and placed on electromagnetically charged slides. Immunohistochemistry was performed as described previously, and the c-Myc and H3K9Ac antibodies were purchased from Abcam. Images were collected using an Olympus BX61 microscope equipped with a high resolution DP72 camera and CellSense image capture software.

The subject of series [5] is BCBL-1 cells. Nature of the series: Cell death regulatory proteins by Western blot. Particulars: 50 nM, 48 h. Format: cell-based.
The nature of series [6]: Toxicity study, oral administration at 100 mg/kg.
Series [7] relates to BJAB.219. Nature of the series: WST-1 cytotoxicity assay, BJAB.219 (KSHV-infected lymphoma). Format: cell-based. Particulars: 72 h, read-out: KSHV-infected lymphomas CC50, BJAB.219. The source says: (§1) Fig 2 Identification of newly synthesized dual inhibitors with anti-PEL activities. (A) The binding mode of (+)-JQ1 with BRD4^BD1 (PDB: 3MXF). BRD4^BD1 is shown as hot pink cartoon with gray surface. Asn140 in BRD4^BD1 is shown as sticks and colored in following pattern: atom C hot pink, atom N dark blue, and atom O yellow. (+)-JQ1 is shown as sticks and colored in following patten: atom C hot pink, atom N dark blue, atom O yellow, atom S golden, and atom Cl green. The solvent exposed region (SEG) of (+)-JQ1 are indicated with white arrow. (B) The binding modes of SAHA and entinostat with HDAC2 (PDB: 3MAX). HDAC2 is shown as blue cartoon with gray surface. Asp181 and His183 in HDAC2 are shown as sticks and colored in following pattern: atom C blue, atom N dark blue, and atom O yellow. The catalytic zinc ion in the active site of HDAC2 is shown as black sphere. SAHA is shown as sticks and colored in following pattern: atom C green, atom N dark blue, and atom O yellow. Entinostat is shown as sticks and colored in following pattern: atom C hot pink, atom N dark blue, and atom O yellow. The SEG of SAHA or entinostat is indicated with white arrow. Hydrogen bonds (H-bonds) are presented by red dash lines. (C) The HDACs/BRD4 dual inhibitors 002-011 were designed by fusing the key pharmacophores of (+)-JQ1 (pink) and HDAC inhibitors (blue), SAHA or entinostat, via various chemical linkers (green). (D) Anti-PEL activities of the new compounds. Five KSHV positive and two KSHV negative lymphoma cell lines were treated with indicated concentrations of these compounds for 72 h. Then the cytotoxicity was determined using the WST-1 assay. (+)-JQ1, SAHA and entinostat were used for the comparisons as single inhibitors. The CC50 for each compound was calculated using GraphPad Prism 5.0 software. Error bars represent S.D. for 3 independent experiments.
BCBL-1 and iSLK.219 cells were kindly provided by Dr. Pinghui Feng (University of Southern California). BL-41, BJAB, BCP-1, BC-1, BC-3, JSC-1, HUVEC cells were purchased from American Type Culture Collection (ATCC), and cultured as recommended by the manufacturer. For making BJAB.219 cells, BJAB cells were infected with rKSHV.219 stock by spinoculation as previously reported by centrifugation at 1500×g for 60 min [31]. Then, puromycin (10 μg/ml) was added into the medium at 72 h post-infection and the medium containing puromycin was replaced twice a week. After 6-week high concentration of puromycin selection, BJAB.219 cells were then cultured in the medium with 0.5 μg/ml puromycin.
The cell viability following treatment with compounds was assessed by the WST-1 assay (Roche, Indianapolis, Indiana, USA) according to the manufacturer’s protocol as described previously. The absorbance signal was measured using a microplate reader (Biotek Synergy 2). […]

Series [8] can be described thus: WST-1 cytotoxicity assay, BL-41 (KSHV negative lymphoma). Type of series: cell-based. Particulars: human; 50% cytotoxic concentration, 72 h, WST-1; read-out: KSHV negative lymphomas CC50, BL-41.
Source text: as §1
(§2) The cell viability following treatment with compounds was assessed by the WST-1 assay (Roche, Indianapolis, Indiana, USA) according to the manufacturer’s protocol as described previously. The absorbance signal was measured using a microplate reader (Biotek Synergy 2). The 50% cytotoxic concentration (CC50) for each compound was calculated from these dose-response curves using the software GraphPad Prism v5.0. Data were normalized as the fold change compared to the DMSO control.

Series [9] can be described thus: WST-1 cytotoxicity assay, BJAB (KSHV negative lymphoma). Particulars: human; 50% cytotoxic concentration, 72 h, WST-1; read-out: KSHV negative lymphomas CC50, BJAB. Format: cell-based.
Source text: as §1, §2

Molecules are shown by their SMILES. Where two headings read alike, the source gives them in different places.

With `Cc1sc2c(c1C)C(c1ccc(Cl)cc1)=N[C@@H](CC(=O)O[C@H](C)c1ccc(C(=O)Nc3ccccc3N)cc1)c1nnc(C)n1-2` [009P1, (R)-1-(4-((2-aminophenyl)carbamoyl)phenyl)ethyl 2-((S)-4-(4-chlorophenyl)-2,3,9-trimethyl-6H-thieno[3,2-f][1,2,4]triazolo[4,3-a][1,4]diazepin-6-yl)acetate], the “Expression of viral genes (LANA, RTA, ORF26)” value in series [1] was “significantly increased”. The “Viral DNA levels” value in series [2] is reported as “slightly increased”. Moreover, the “H3K9Ac, H4K9Ac and Acetyl-tubulin protein levels” value in series [3] (BCBL-1 cells, 48 h, Western blot) is on record as “increased”. In [4] (i.p., 20 mg/kg), the “PEL tumor progression (ascites formation, spleen enlargement)” value is listed as “dramatically suppressed PEL tumor progression”; the “Tumor infiltration into the spleen (H&E)” value is reported as “only diffuse small tumor nodules”; the “Visible toxicity in mice (abnormal weight loss)” value was “not observed”. The “Tumor burden in mice (ascites formation, spleen enlargement)” value in series [4] (oral administration, 20 mg/kg) is given as “effectively repressed tumor burden”. Further, the “Expression of p-RB, cleaved-caspase 3 and cleaved-PARP” value (from here on “Expression of p-RB”) in [5] is “strongly affected”.

Consider `Cc1sc2c(c1C)C(c1ccc(Cl)cc1)=N[C@@H](CC(=O)OC(C)(C)C)c1nnc(C)n1-2` [(+)-JQ1, reference compound], for which the “Toxicity in the mice” value in [6] is reported as “severe toxicity”. Also, the CC50 in series [7] is about 120 nM. Besides, the CC50 at 72 h was determined as 680 nM in [8] and 1110 nM in series [9]. Further, the “Tumor infiltration into the spleen (H&E)” value in series [4] (i.p., 50 mg/kg) is reported as “slightly reduced”. In series [4] (i.p., 50 mg/kg), the “Visible toxicity in mice (abnormal weight loss)” value is “visible toxicity”. Also, the “Expression of p-RB” value in series [5] is listed as “almost unchanged”.

On to `O=C(CCCCCCC(=O)Nc1ccccc1)NO` [SAHA, suberoylanilide hydroxamic acid, reference compound], for which the “Viral DNA levels” value in series [2] is given as “obviously increased”. The CC50 in series [7] (50% cytotoxic concentration, WST-1) was 560 nM. The CC50 at 72 h in series [8] is 3940 nM; in series [9], 3340 nM. Further, the “H3K9Ac, H4K9Ac and Acetyl-tubulin protein levels” value in series [3] is listed as “upregulated”. Moreover, the “Expression of p-RB” value in [5] is “almost unchanged”.
